Here are results for four compounds from patent publication US5939578A, “Vasomolol: an ultra short-acting and vasodilatory vanilloid type β - adrenoceptor antagonist” (Lin; Tong-Ho, priority 1996, dated 1999).

The structures appear in SMILES notation. Where only a bound is given, the exact number is not on record here.

Series [1] can be described thus: Blood pressure and heart rate responses to intravenous injection in anesthetized rats. The format is in vivo, pentobarbital-anesthetized normotensive Wistar rats. Here is the method: Measurement of blood pressure and heart rate
The method reported in Gen.
(§1) vasomolol (0.5, 1.0, 3.0 mg/kg)

The subject of series [2] is phenylephrine-induced pressor response. Put plainly: Inhibition of phenylephrine-induced pressor response during intravenous infusion. The format is in vivo, reserpinized rats. Conditions: infusion 300 μg/kg/min; phenylephrine 10 μg/kg i.v.; data not shown. On the procedure:
The method reported in Gen. Pharmacol. 24, 1425, 1993 (by inventor group),
phenylephrine (10 μg/klg, i.v.)

In series [3] the test system is β-adrenergic receptor. The series can be described thus: β-blockade and duration of action: inhibition of (-)isoproterenol-induced tachycardia during and after infusion. The series is classed as in vivo, pentobarbital-anesthetized rats. Here is the method:
Vasomolol (100 μg/kg/min) was infused consecutively into a femoral vein in pentobarbital-anesthetized rats. Each perfusion was maintained for 60 min. Before and during the infusion of vasomolol and esmolol, at 10-min intervals, bolus i.v. injections of (-) isoproterenol (0.5. μg/kg) were administered to assess the level of β-blockade. (-) lsoproterenol injections were also continued for 60 min. after termination of the highest dose of vasomolol and esmolol to assess the duration of β-blockade reported in J. Pharm. Exp. Ther. 237, 912, 1986 (by Quon, C. Y. et al.). The percentage of inhibition of the (-)isoproterenol-induced tachycardia parameter of β-blockade--was calculated during and after infusions of vasomolol.
isoproterenol (0.5 μg/kg)
as §1

The target in series [4] is T1, β-adrenoceptor, ventricular membranes (Sus scrofa, UniProt Q28998).
T1 construct: tissue local slaughterhouse; host or cells: pig heart ventricular membranes
The series can be described thus: Competition for [3H]-DHA binding to ventricular membranes. Also noted: species or system pig. On the procedure: Pig's heart were obtained from a local slaughterhouse immediately after the animals had been killed and transported to our laboratory in ice-cold buffer (250 mM sucrose/50 mM Tris [hydroxymethyl] aminomethane HCl/1 mM magnesium chloride, pH 7.4). Various heart tissues were removed and prepared as detailed as described in Cardiovasc. […] In the test for receptor binding, the ventricles were placed in ice-cold buffer and all subsequent procedures were carried out at 4° C. The tissue was homogenised in 20 volumes of TE buffer (10 mmole.litre^-1 Tris-HCl, 1 mmole.litre^-1 EDTA, 0.1 mmole.litre^-1 ascorbic acid, pH 7.4) with three 12-s pulses using a Polytron homogenizer (Kinematica, Model PT 3000, Switzerland). The homogenate was filtered with pressure through muslin and the filtrate centrifuged for 10 min at 1000 g to remove connective tissue, unbroken cells and cell debris.
This membrane preparation has been described in Biochem. Biophys. Acta. […] The binding assay of [^3 H]-DHA was carried out as described in Biochem. Biophys. Res. Commun. […] [^3 ]-DHA and ventricular membranes (200-300 μg) were incubated for 60 min at 25° C. with and without the addition of 1 μM alprenolol, in 75 mM Tris-HCI buffer comprising MgCl2 25 mM, to make a final volume of 250 μl. In competitive binding experiments, the competing agent was added directly to the incubation mixture. The incubation was terminated by addition of 1 ml of ice-cold assay buffer followed by immediate filtration through Whatman GF/C glass fiber filters supported on a 12-port filter manifold (Millipore). The filters were immediately washed three times with 5 ml of ice-cold assay buffer and dried in an oven at 60° C. for 2 hr prior to adding 5 ml of Triton-toluene based scintillation fluid.
In each experiment, non-specifically bound [^3 H]-DHA was determined by incubating membrane protein and [^3 H]-DHA with 1 μM alprenolol. Specific binding was thus obtained by deducing this value from the total binding of [^3 H]-DHA for each sample.
All incubations were performed as described in the method section. Data shown are the means of three independent duplicate determinations.

For series [5], the system named is blood and liver esterase. Conditions: background, Drugs 33, 392, 1987; cited from earlier work.
The subject of series [6] is right atria and left atrial strips. Put plainly: Intrinsic sympathomimetic activity in isolated right atria and left atrial strips. Conditions: in words. Set-up: species or system reserpinized guinea-pigs. Here is the method:
Animals were pretreated with reserpine (10 mg/kg, i.p.) 24 hr prior to the experiment described in Naunyn-Schmiedeberg's Arch. […] All preparations including isolated right atria and left atria strips were studied.
All measurements are expressed as mean percentages of the control frequency or force in the same preparation.

Series [7] can be described thus: Blood pressure and heart rate responses to intravenous injection in anesthetized rats. The series is classed as in vivo, pentobarbital-anesthetized normotensive Wistar rats. Conditions: 0.1 mg/kg i.v.; mean ± SEM (n = 8).
The subject of series [8] is β-adrenoceptor, ventricular membranes. Put plainly: [3H]-DHA saturation binding to ventricular membranes (Scatchard analysis). Also noted: species or system pig. Here is the method:
Pig's heart were obtained from a local slaughterhouse immediately after the animals had been killed and transported to our laboratory in ice-cold buffer (250 mM sucrose/50 mM Tris [hydroxymethyl] aminomethane HCl/1 mM magnesium chloride, pH 7.4). Various heart tissues were removed and prepared as detailed as described in Cardiovasc. Res. 25, 764, 1991 (by Bjornerheim, R. et al.). In the test for receptor binding, the ventricles were placed in ice-cold buffer and all subsequent procedures were carried out at 4° C. The tissue was homogenised in 20 volumes of TE buffer (10 mmole.litre^-1 Tris-HCl, 1 mmole.litre^-1 EDTA, 0.1 mmole.litre^-1 ascorbic acid, pH 7.4) with three 12-s pulses using a Polytron homogenizer (Kinematica, Model PT 3000, Switzerland). The homogenate was filtered with pressure through muslin and the filtrate centrifuged for 10 min at 1000 g to remove connective tissue, unbroken cells and cell debris. The supernatant was centrifuged again at 10,000 g for 12 min. This second supernatant was then centrifuged for 15 min at 30,000 g and the final pellet was suspended in a assay buffer (75 mM Tris HCl/25 mM MgCl2, pH 7.4).
Protein was determined by the method in Anal. Biochem. 72, 248, 1976 (by Bradford, M. M. et al.). This membrane preparation has been described in Biochem. Biophys. Acta. 541, 334, 1978 (by Ciaraldi, T. et al.). The binding assay of [^3 H]-DHA was carried out as described in Biochem. Biophys. Res. Commun. 60, 703, 1974 ( by Lefkowitz, R. J. et al.) with slight modifications. [^3 ]-DHA and ventricular membranes (200-300 μg) were incubated for 60 min at 25° C. with and without the addition of 1 μM alprenolol, in 75 mM Tris-HCI buffer comprising MgCl2 25 mM, to make a final volume of 250 μl. In competitive binding experiments, the competing agent was added directly to the incubation mixture. The incubation was terminated by addition of 1 ml of ice-cold assay buffer followed by immediate filtration through Whatman GF/C glass fiber filters supported on a 12-port filter manifold (Millipore). The filters were immediately washed three times with 5 ml of ice-cold assay buffer and dried in an oven at 60° C. for 2 hr prior to adding 5 ml of Triton-toluene based scintillation fluid.
[^3 H]-DHA trapped in the filters was counted in a Wallac LKB 1211 rackbeta liquid scintillation counter with an efficiency of 41%. In each experiment, non-specifically bound [^3 H]-DHA was determined by incubating membrane protein and [^3 H]-DHA with 1 μM alprenolol. Specific binding was thus obtained by deducing this value from the total binding of [^3 H]-DHA for each sample.
[^3 H]dihydroalprenolol([^3 H]DHA) binding curve with pig ventricular membranes. […]

[9] abbreviates: 0.5 mg/kg i.v., mean ± SEM (n = 8).
The mark [10] stands for this setting: 1.0 mg/kg i.v., mean ± SEM (n = 8).
Where [11] appears, read: 3.0 mg/kg i.v., mean ± SEM (n = 8).

One may read the IC50 as the concentration that gives 50% inhibition. A higher IC50 goes with a need for much substance. By Kd is commonly meant a measure of binding affinity in units of concentration.

T1 sequence (Q28998 whole entry): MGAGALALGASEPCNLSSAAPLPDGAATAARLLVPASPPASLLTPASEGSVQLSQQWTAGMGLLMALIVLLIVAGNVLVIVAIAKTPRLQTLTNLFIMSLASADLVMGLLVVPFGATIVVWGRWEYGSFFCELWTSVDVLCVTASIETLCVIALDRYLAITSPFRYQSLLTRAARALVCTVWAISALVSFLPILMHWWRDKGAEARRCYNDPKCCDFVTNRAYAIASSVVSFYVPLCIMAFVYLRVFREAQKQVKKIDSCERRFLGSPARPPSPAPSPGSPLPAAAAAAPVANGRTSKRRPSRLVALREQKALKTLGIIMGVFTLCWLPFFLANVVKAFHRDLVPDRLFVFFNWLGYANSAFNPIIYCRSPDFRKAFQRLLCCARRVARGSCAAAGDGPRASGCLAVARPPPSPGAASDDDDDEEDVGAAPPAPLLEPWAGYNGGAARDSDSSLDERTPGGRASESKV

`COC(=O)CCc1ccc(OCC(O)CNC(C)C)cc1` (centres unmarked) [Esmolol]: the BP change in series [1] (setting [9]) is on record as -4.0 ± 0.8 mm Hg; in series [1] (setting [10]), -6.3 ± 1.3 mm Hg; in series [1] (setting [11]) it was -8.7 ± 0.9 mm Hg. Further, the values for the HR change in series [1] (setting [9]), in series [1] (setting [10]) and in series [1] (setting [11]) were -25.7 ± 2.4 bpm, -37.5 ± 3.6 bpm and -58.2 ± 4.7 bpm, respectively. Besides, the bradycardia duration was 3.7 ± 0.6 min in series [1] (setting [9]), 6.0 ± 1.3 min in series [1] (setting [10]), 7.5 ± 1.1 min in series [1] (setting [11]) and “less than 10 min” in series [1] (i.v. injection). Besides, in series [2], the “inhibition of phenylephrine-induced pressor response” value is recorded as “could not significantly inhibit”. Also, the “onset of β-blockade to steady-state level” value in series [3] (after initiating each infusion rate, isoproterenol 0.5 μg/kg) is on record as no more than 10 min. In series [3] (after termination of infusion, mean±S.E.M.), the “time required for 50% recovery” value came to 9.5 ± 1.0 min. Moreover, the “disappearance of β-blockade after termination of infusion” value in series [3] (in words) is recorded as “disappeared rapidly after the termination of infusion”. Moreover, in series [4] (in words), the “order of potency inhibiting [3H]-DHA binding” value is on record as “(-) propranolol>>vasomolol=esmolol”. Also, in series [4] (mean±S.E.M.), the IC50 is 5000 ± 1300 nM. Besides, the “metabolism by blood and liver esterase” value in series [5] is “rapidly metabolized by blood and liver esterase”.

On to `CC(C)NCC(O)COc1cccc2ccccc12` (centres unmarked) [Propranolol], for which the BP change in series [1] (0.1 mg/kg i.v., mean ± SEM (n = 8)) worked out at 3.9 ± 1.0 mm Hg; in series [1] (setting [9]) it was 7.0 ± 1.6 mm Hg; in series [1] (setting [10]) it was 9.5 ± 1.1 mm Hg. In addition, the values for the HR change in series [1] (setting [9]), in series [1] (setting [10]) and in series [7] were -50.6 ± 8.1 bpm, -65.0 ± 8.9 bpm and -30.7 ± 3.8 bpm, respectively. Further, the “negative inotropic and chronotropic effects” value in series [6] was “produced negative inotropic and chronotropic effects”.

In the case of `CCCc1ccccc1OCC(O)CNC(C)C` (centres unmarked) [[^3 H]-DHA, [^3 H]dihydroalprenolol], the “maximum binding capacity (Bmax)” value in series [8] (25° C., mean±S.E.M., Scatchard) stood at 120.3±6.0 fmol/mg protein. The Kd in series [8] (25° C., mean±S.E.M., Scatchard, read-out: equilibrium dissociation constant (Kd)) is 8.1 ± 0.9 nM. For the same compound, in series [8] (data not shown), the “duration of maintained binding equilibrium” value is recorded as “up to 90 min” and the “time to reach binding equilibrium” value is recorded as “approximately 20 min”.

In the case of `CC(C)NCC(O)c1ccc(O)c(O)c1` (centres unmarked) [isoproterenol, reference compound], the “intrinsic sympathomimetic activity: effect on heart rate and contractility” value in series [6] (cumulative concentrations) is “produced concentration-dependent increases in heart rate and contractility”.
